Assays:
melanoma B16 [1] = assay: activity toward melanoma B16 implanted subcutaneously, I.V. route; format: in vivo, mouse; conditions: 20 mg/kg/inj. days 3, 7, 11
Method: The activity of the substances of the invention was also tested by administering the said substances of the invention by the I.V. route. 0.5 ml of an homogenate of the tumor (1 g/10 ml) is administered to B6C3F1 female mice by the subcutaneous (S.C. route) on day 0. The products of the invention and the substances used for comparison are administered on days 3, 7 and 11 in isotonic solution.
In Table IIA below the results are presented relating to the activity of the substance CI. 1675 administered by the I.V. route on the growth of the melanoma B16 implanted subcutaneously, in comparison with carmustine BCNU marketed under the name of BiCNU®.
In Table IIA below and in the subsequent tables, T represents the mean weight (or median) of the tumors in the treated mice, C represents the mean weight (or median) of the tumors in the control, untreated mice and the ratio T/C% corresponds to T/C×100.

colon carcinoma C38 = assay: colon carcinoma C38, comparison of I.V. and I.P. routes, treatment days 8, 12, 16; format: in vivo, mouse; parameters: key to Median wt. of the tumor D20 / Median wt. of the tumor D27: median tumor weight in mg; conditions: I.P. Route, 20 mg/kg/inj.
Method: With a view to verifying the antitumor activity of the product of the invention CI.1671 when it is administered by the I.V. route, another experiment was performed in which this product was administered by the I.P. route and the I.V. route for the purposes of comparison.
This experiment is carried out under particularly difficult conditions, the first day of the treatment corresponding to the eighth day after the implantation of the carcinoma C38, whereas normally the treatment starts on the day of implantation of the tumor (D0) or 1 day after (D1) the implantation of the tumor.
The median weight of the tumors on the first day of treatment (day 8) is about 12 mg (tumors varying from 8 to 40 mg). The animals are treated on days 8, 12 and 16 depending on the different routes indicated. […]

L1210 U.S.A. = assay: antitumor activity on leukemia L1210 U.S.A., products of examples 33-39, I.P.; format: in vivo, mouse
Method: The experiments were always carried out on female mice which were specific pathogen-free (S. P. F.),
either of the line DBA/2JIco
or of the line B6 D2 F1/JIco (first generation hybrids between the lines C57BL/6 and DBA/2).
On the day of the graft (by convention day 0=D0) an inoculum of 1×10^5 tumor cells in a volume of 0.2 ml is administered to each mouse by the intraperitoneal route (I.P.).
This inoculum is prepared by diluting ascites fluid taken from the peritoneum of a donor female mouse in NCTC 109 medium (Eurobio Laboratories, Paris, France), counting of the cells in a MALASSEZ cell under a microscope and adjustment of the concentration to 5×10^5cells […] by means of the same medium.
The tumor line is an American strain of the line L1210.
After the tumor graft, the mice are distributed at random in cages of 5 animals. Subsequently, these cages containing 5 mice are themselves distributed at random into a control group (control) and groups treated with the I.C. products.
The doses of the products of the invention used in the different experiments are expressed in milligrams per kilogram of body weight.
The products to be injected were dissolved in isotonic sodium chloride solution.
2 protocols for treatment were used in the different experiments:
either a single injection on D1, by the intraperitoneal (I.P.) or intravenous (I.V.) route,
or 3 I.P. injections on D1, D5, D9.
In each experiment the animals of the control group received 1 or more injections, depending on the experimental protocol used, by the same route (I.P. or I.V.) of the same volume (0.2 ml/20 g) of the vehicle without the active principle (isotonic sodium chloride solution).
the number and percentage of the total of the mice surviving to D60,
the T/C×100 for the treated groups.
T representing the mean survival time of the mice in the treated group,
C representing the mean survival time of the mice in the control group (controls).

[2] = toxicological results, single I.P. dose, DL0 and DL50; format: in vivo, mouse; conditions: mice
Excerpt: DL0, DL50, single I.P. dose administered to the aforementioned strains of mice.

leucemia L 1210 IGR = assay: "in vivo" activity on leucemia L1210 IGR, 20 mg/kg i.p. days 1, 5, 9; parameters: species or system mouse
Method: Female DBA2 mice were used, about 8 weeks old and weighing about 20 g from the IFFA-CREDO center (les Oncins, 69210 Arbresles)
At day "0", each mouse received intraperitoneally an inoculum of […] in a volume of 0.2 ml.
After tumoral graft, the mice were distributed at random into 21 cages of 5 animals, themselves then distributed, by drawing lots, into 6 experimental series. Within these 6 experimental series, there were constituted a control series of 6 cages and 5 experimental series of 3 cages each, and of which the mice were intended to be treated by the compounds of the invention.
(§1) The protocol was identical for the 3 tumors and the 5 compounds of the invention to be tested.
(§2) As regards the experimental series to be treated, each mouse received, at days 1, 5 and 9, intraperitoneally, a dose of 20 mg/kg of the compound to be tested, in the volume of 0.2 ml of neutralized and sterilized olive oil.
(§3) As regards the control series, each mouse received, intraperitoneally, 0.2 ml of neutralized and sterilized olive oil.
(§4) The results are expressed by the relative increase in survival (T/C×100) calculated from the average survival of the treated animals (T) and that of the control animals (C)
(§5) The mice surviving more than 60 days were considered as cured.
(§6) The figures between parentheses indicate the percentage of cured mice.

Tumor LEWIS 3LL = assay: "in vivo" activity on Lewis tumor, 20 mg/kg i.p. days 1, 5, 9; parameters: species or system mouse
Method: Procedure was under the conditions which have just been described previously with regard to melanoma B16, by injecting the tumor cells, in the proportion of 2×10^6 per mouse, in the volume of 0.2 ml.
as §1, §2, §3, §4, §5, §6

melanoma B16 [3] = assay: "in vivo" activity on melanoma B16, 20 mg/kg i.p. days 1, 5, 9; parameters: species or system mouse
Method: Female C57 B 1/6 mice were used, about 8 weeks old and weighing about 20 g, from the IFFA-CREDO center.
At day "0", each mouse received intraperitoneally an inoculum of 2×10^6 tumor cells in a volume of 0.5 ml.
After tumoral graft, distribution at random was carried out as indicated above, to obtain a control series of 8 cages and 5 experimental series of 4 cages each, and of which the mice were intended to be treated by the compounds of the invention.
as §1, §2, §3, §4, §5, §6

L 1210 USA Tumor = assay: "in vivo" activity on L1210 U.S.A. tumor, 5 mg/kg i.p. days 1, 5, 9; parameters: species or system mouse
Method: The tumor L1210 U.S.A. is more resistant than tumor L1210 IGR.
(§7) The experiments were identical to those described in preceding paragraph 4 but lower doses were used.
There were inoculated into the mice, 10^5 tumor cells of L1210 U.S.A. intraperitoneally in a volume of 0.2 ml.
At days 1, 5 and 9, the compounds of the invention under test were injected intraperitoneally, at a lower dose than that used in the experiment described at 4, that is to say in the proportion of 5 mg/kg.

L 1210 IGR TUMOR = assay: "in vivo" activity on L1210 IGR tumor, 5 mg/kg i.p. days 1, 5, 9; parameters: species or system mouse
Method: as §7
The same protocol was carried out with the tumor L1210 IGR, by inoculating 10^5 tumor cells of L1210 IGR intraperitoneally in the volume of 0.2 ml then, at days 1, 5 and 9, there were injected intraperitoneally 5 mg/kg of each of the compounds to be tested.

[4] = DBA2, I.P. D1, D5, D9, 3×10 mg/kg
[5] = DBA2, I.P. D1, D5, D9, 3×2.5 mg/kg

O=NN(CCCl)C(=O)NCCCl [BCNU, (1,3-bis-2-chloroethyl)-1-nitrosourea, reference compound]
Median weight of the tumor on day 3 (melanoma B16 [1]): 40 mg
Median weight of the tumor on day 30 (melanoma B16 [1]): 2 581 mg
T/C on day 30 (tumor weight) (melanoma B16 [1]): 33,0%
Median wt. of the tumor D20 (colon carcinoma C38): 196
Median wt. of the tumor D27 (colon carcinoma C38): 274
Mice without tumor/total D20 (colon carcinoma C38): 0/8
Mice without tumor/total D27 (colon carcinoma C38): 0/6
T/C % D20 (colon carcinoma C38): 34%
T/C % D27 (colon carcinoma C38): 21%

CO[C@H]1C[C@@H](NC(=O)N(CCCl)N=O)[C@H](O)[C@@H](C)O1 [IC. 85-1625, methyl 3-[3-(2-chloroethyl) 3-nitrosoureido] 2,3,6-trideoxyβ-L-arabino-hexopyranoside]
Number of survivors at D60 (L1210 U.S.A.; [4]): 0/10
T/C (L1210 U.S.A.; [4]): 190
DL0 [2]: ≥ 40 mg/kg

CO[C@@H]1C[C@@H](NC(=O)N(CCCl)N=O)[C@H](O)[C@@H](CO)O1 [IC 1184, Methyl 3-[3-(2-chloroethyl) 3-nitrosoureido] 2,3-didesoxy α-D-arabinohexopyranoside]
relative increase in survival (T/C×100) (leucemia L 1210 IGR): 556
percentage of cured mice (leucemia L 1210 IGR; surviving more than 60 days): 47%
relative increase in survival (T/C×100) (Tumor LEWIS 3LL): .infin. (The sign 00 indicates that 50% at least of the mice were cured)
percentage of cured mice (Tumor LEWIS 3LL; surviving more than 60 days): 90%
relative increase in survival (T/C×100) (melanoma B16 [3]): 235
percentage of cured mice (melanoma B16 [3]; surviving more than 60 days): 15%
Average survival ±2 σm (L 1210 USA Tumor): 18 ± 1,19
Median survival (L 1210 USA Tumor): 17,8
T/C × 100 (average survival) (L 1210 USA Tumor): 209
T/C × 100 (median survival) (L 1210 USA Tumor): 205
Median survival (L 1210 IGR TUMOR): 24
T/C × 100 (average survival) (L 1210 IGR TUMOR): 378
T/C × 100 (median survival) (L 1210 IGR TUMOR): 265

CO[C@H]1O[C@@H](C)C[C@@H](NC(=O)N(CCCl)N=O)[C@@H]1O [IC. 85-1627, methyl 3-[3-(2-chloroethyl) 3-nitrosoureido] 3,4,6-trideoxyβ-L-xylo-hexopyranoside]
Number of survivors on D60 (L1210 U.S.A.; DBA2, I.P. D1, 1×20 mg/kg): 3/10
Number of survivors on D60 (L1210 U.S.A.; [5]): 0/10
T/C (L1210 U.S.A.; [5]): 141
Number of survivors at D60 (L1210 U.S.A.; [4]): 6/10
T/C (L1210 U.S.A.; [4]): > 600
DL0 [2]: ≥ 40 mg/kg

From patent US4902791A, “Nitrosourea derivatives, process for their preparation and medicaments containing them” (Sanofi S.A., priority 1983, dated 1990)
